Legend:
Experiment in all cases: combination Emax (second highest fraction inhibited in the dose matrix, 72 h); higher = more inhibition; extreme values may be limits of the assay
[1] = test system: KYSE-270 (Esophageal Squamous Cell Carcinoma)
Procedure, shortened: (§1)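 Cell lines grown in DMEM/F12 or RPMI with 10% FBS were plated in 1536-well plates and held 24 hours at 37°C, 5% CO2 before 72 hours of exposure to two-drug dose matrices, with DMSO typically at 0.2%. CellTiter-Glo 2.0 luminescence gave viability, which was converted to inhibition. Vehicle wells were set to 0 and blank wells to 1. Combination Emax is the second-highest inhibition in the matrix, and Bliss excess is the observed combination effect minus the expected EA + EB − EA·EB, where EA and EB are the single-agent effects.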

[2] = test system: SJSA-1 (Osteosarcoma)
Procedure, shortened: as §1

[3] = test system: SK-GT-4 (Esophageal Adenocarcinoma)
Procedure, shortened: as §1

[4] = test system: DMS-114 (Small Cell Lung Carcinoma)
Procedure, shortened: as §1

[5] = test system: MN-60 (B-Lymphoblastic Leukemia)
Procedure, shortened: as §1

[6] = test system: NCI-H3122 (Lung Adenocarcinoma)
Procedure, shortened: as §1

[7] = test system: MOG-G-CCM (Low Grade Glioma)
Procedure, shortened: as §1

[8] = test system: KP-3 (Pancreatic Carcinoma)
Procedure, shortened: as §1

[9] = test system: M059J (Glioblastoma)
Procedure, shortened: as §1

[10] = test system: CW-2 (Colorectal Carcinoma)
Procedure, shortened: as §1

[11] = test system: NCCIT (Other Solid Carcinomas)
Procedure, shortened: as §1

[12] = test system: VMRC-RCZ (Kidney Carcinoma)
Procedure, shortened: as §1

[13] = test system: NCI-H526 (Small Cell Lung Carcinoma)
Procedure, shortened: as §1

[14] = test system: ST486 (Burkitt's Lymphoma)
Procedure, shortened: as §1

[15] = test system: NCI-H520 (Squamous Cell Lung Carcinoma)
Procedure, shortened: as §1

[16] = test system: T-T (Esophageal Squamous Cell Carcinoma)
Procedure, shortened: as §1

[17] = test system: NCI-H929 (Plasma Cell Myeloma)
Procedure, shortened: as §1

[18] = test system: OCI-AML3 (Acute Myeloid Leukemia)
Procedure, shortened: as §1

[19] = test system: COR-L279 (Small Cell Lung Carcinoma)
Procedure, shortened: as §1

[20] = test system: NCI-H2731 (Mesothelioma)
Procedure, shortened: as §1

## CN(CCO)CC[C@H](CSc1ccccc1)Nc1ccc(S(=O)(=O)NC(=O)c2ccc(N3CCC([C@@H](O)c4ccccc4-c4ccc(Cl)cc4)CC3)cc2)cc1S(=O)(=O)C(F)(F)F [AZD4320] + CC(=O)O[C@H]1C(=O)[C@@]2(C)[C@H]([C@H](OC(=O)c3ccccc3)[C@]3(O)C[C@H](OC(=O)[C@H](O)[C@@H](NC(=O)c4ccccc4)c4ccccc4)C(C)=C1C3(C)C)[C@]1(OC(C)=O)CO[C@@H]1C[C@@H]2O [Paclitaxel] (first compound max 1 µM, 7x7, partner max 3 µM)
[1]
  combination Emax: 0.913
[2]
  combination Emax: 0.967
[3]
  combination Emax: 0.894
[4]
  combination Emax: 0.879
[5]
  combination Emax: 0.546
[6]
  combination Emax: 0.999
[7]
  combination Emax: 0.996
[8]
  combination Emax: 0.8
[9]
  combination Emax: 0.974
[10]
  combination Emax: 0.608
[11]
  combination Emax: 0.989
[12]
  combination Emax: 0.693
[13]
  combination Emax: 1
[14]
  combination Emax: 1
[15]
  combination Emax: 0.944
[16]
  combination Emax: 0.92
[17]
  combination Emax: 0.926
[18]
  combination Emax: 1
[19]
  combination Emax: 1
[20]
  combination Emax: 0.932

## CN(CCO)CC[C@H](CSc1ccccc1)Nc1ccc(S(=O)(=O)NC(=O)c2ccc(N3CCC([C@@H](O)c4ccccc4-c4ccc(Cl)cc4)CC3)cc2)cc1S(=O)(=O)C(F)(F)F [AZD4320] + CS(=O)(=O)CCNCc1ccc(-c2ccc3ncnc(Nc4ccc(OCc5cccc(F)c5)c(Cl)c4)c3c2)o1 [Lapatinib] (first compound max 1 µM, 7x7, partner max 10 µM)
[1]
  combination Emax: 0.708
[2]
  combination Emax: 0.332
[3]
  combination Emax: 0.774
[4]
  combination Emax: 0.36
[5]
  combination Emax: 0.206
[6]
  combination Emax: 0.281
[7]
  combination Emax: 0.729
[8]
  combination Emax: 0.363
[9]
  combination Emax: 0.705
[10]
  combination Emax: 0.593
[11]
  combination Emax: 0.243
[12]
  combination Emax: 0.598
[13]
  combination Emax: 0.995
[14]
  combination Emax: 0.96
[15]
  combination Emax: 0.57
[16]
  combination Emax: 0.935
[17]
  combination Emax: 0.589
[18]
  combination Emax: 0.884
[19]
  combination Emax: 1
[20]
  combination Emax: 0.858

## O=C(c1cc(Cc2n[nH]c(=O)c3ccccc23)ccc1F)N1CCN(C(=O)C2CC2)CC1 [Olaparib] + Cc1c2c(nn1C)CSCc1cc(n(C)n1)CSc1cc(c3ccccc3c1)OCCCc1c(C(=O)O)n(C)c3c-2c(Cl)ccc13 [AZD5991] (first compound max 10 µM, 7x7, partner max 1 µM)
[1]
  combination Emax: 0.625
[2]
  combination Emax: 0.0831
[3]
  combination Emax: 0.0608
[4]
  combination Emax: 0.55
[5]
  combination Emax: 0.22
[6]
  combination Emax: 0.315
[7]
  combination Emax: 0.222
[8]
  combination Emax: 0.028
[9]
  combination Emax: 0.254
[10]
  combination Emax: 0.101
[11]
  combination Emax: 0.527
[12]
  combination Emax: 0.0573
[13]
  combination Emax: 0.805
[14]
  combination Emax: 0.558
[15]
  combination Emax: 0.104
[16]
  combination Emax: 0.801
[17]
  combination Emax: 1
[18]
  combination Emax: 0.98
[19]
  combination Emax: 0.961
[20]
  combination Emax: 0.0516

## O=C(c1cc(Cc2n[nH]c(=O)c3ccccc23)ccc1F)N1CCN(C(=O)C2CC2)CC1 [Olaparib] + CN(CC[C@H](CSC1=CC=CC=C1)NC2=C(C=C(C=C2)S(=O)(=O)NC(=O)C3=CC=C(C=C3)N4CCC(CC4)[C@H](C5=CC=CC=C5C6=CC=C(C=C6)Cl)O)S(=O)(=O)C(F)(F)F)CCO [AZD4320] (first compound max 10 µM, 7x7, partner max 1 µM)
[1]
  combination Emax: 0.383
[2]
  combination Emax: 0.133
[3]
  combination Emax: 0.154
[4]
  combination Emax: 0.214
[5]
  combination Emax: 0.25
[6]
  combination Emax: 0.223
[7]
  combination Emax: 0.445
[8]
  combination Emax: 0.104
[9]
  combination Emax: 0.321
[10]
  combination Emax: 0.113
[11]
  combination Emax: 0.198
[12]
  combination Emax: 0.0911
[13]
  combination Emax: 0.916
[14]
  combination Emax: 0.754
[15]
  combination Emax: 0.125
[16]
  combination Emax: 0.233
[17]
  combination Emax: 0.142
[18]
  combination Emax: 0.548
[19]
  combination Emax: 0.992
[20]
  combination Emax: 0.0908

## Cc1c2c(nn1C)CSCc1cc(n(C)n1)CSc1cc(c3ccccc3c1)OCCCc1c(C(=O)O)n(C)c3c-2c(Cl)ccc13 [AZD5991] + CC(=O)O[C@H]1C(=O)[C@@]2(C)[C@H]([C@H](OC(=O)c3ccccc3)[C@]3(O)C[C@H](OC(=O)[C@H](O)[C@@H](NC(=O)c4ccccc4)c4ccccc4)C(C)=C1C3(C)C)[C@]1(OC(C)=O)CO[C@@H]1C[C@@H]2O [Paclitaxel] (first compound max 1 µM, 7x7, partner max 3 µM)
[1]
  combination Emax: 0.962
[2]
  combination Emax: 0.725
[3]
  combination Emax: 0.454
[4]
  combination Emax: 0.944
[5]
  combination Emax: 0.539
[6]
  combination Emax: 0.965
[7]
  combination Emax: 0.936
[8]
  combination Emax: 0.365
[9]
  combination Emax: 0.865
[10]
  combination Emax: 0.497
[11]
  combination Emax: 0.984
[12]
  combination Emax: 0.358
[13]
  combination Emax: 1
[14]
  combination Emax: 0.994
[15]
  combination Emax: 0.769
[16]
  combination Emax: 0.989
[17]
  combination Emax: 1
[18]
  combination Emax: 1
[19]
  combination Emax: 0.997
[20]
  combination Emax: 0.397

## C[C@@H]1COCCN1c1cc(C2([S@](C)(=N)=O)CC2)nc(-c2ccnc3[nH]ccc23)n1 [AZD6738] + C1CC(C1)(C(=O)[O-])C(=O)[O-].N.N.[Pt+2] [Carboplatin] (first compound max 10 µM, 7x7, partner max 10 µM)
[1]
  combination Emax: 0.779
[2]
  combination Emax: 0.477
[3]
  combination Emax: 0.463
[4]
  combination Emax: 0.4
[5]
  combination Emax: 0.638
[6]
  combination Emax: 0.674
[7]
  combination Emax: 0.536
[8]
  combination Emax: 0.264
[9]
  combination Emax: 0.502
[10]
  combination Emax: 0.537
[11]
  combination Emax: 0.531
[12]
  combination Emax: 0.392
[13]
  combination Emax: 0.564
[14]
  combination Emax: 0.865
[15]
  combination Emax: 0.674
[16]
  combination Emax: 0.26
[17]
  combination Emax: 0.801
[18]
  combination Emax: 0.854
[19]
  combination Emax: 0.635
[20]
  combination Emax: 0.399

Source: the supplement of paper PMC11061612
